pIC50: −log10 of the molar value.
Biological target: T1, Na+/H+ exchange transport system (Rattus norvegicus, UniProt P26431)
T1 construct: using the vascular smooth muscle cells isolated from the rat thoracic aorta; endogenous in cells; host or cells: vascular smooth muscle cells isolated from the rat thoracic aorta
Experiment: Inhibitory effect on the Na+/H+ exchange transport system (in vitro), change in intracellular pH during acid loading
Format: cell-based
Details: vascular smooth muscle cells isolated from the rat thoracic aorta
Experimental: Inhibitory effect on the Na+/H+ exchange transport system (in vitro)
The test was carried out according to the method of Yamori et al. (J. Hypertension, 8, 153 (1990)). In detail, inhibitory effect on the Na+/H+ exchange transport system was evaluated by the change in intracellular pH during acid loading, using the vascular smooth muscle cells isolated from the rat thoracic aorta.

T1 sequence (P26431 whole entry): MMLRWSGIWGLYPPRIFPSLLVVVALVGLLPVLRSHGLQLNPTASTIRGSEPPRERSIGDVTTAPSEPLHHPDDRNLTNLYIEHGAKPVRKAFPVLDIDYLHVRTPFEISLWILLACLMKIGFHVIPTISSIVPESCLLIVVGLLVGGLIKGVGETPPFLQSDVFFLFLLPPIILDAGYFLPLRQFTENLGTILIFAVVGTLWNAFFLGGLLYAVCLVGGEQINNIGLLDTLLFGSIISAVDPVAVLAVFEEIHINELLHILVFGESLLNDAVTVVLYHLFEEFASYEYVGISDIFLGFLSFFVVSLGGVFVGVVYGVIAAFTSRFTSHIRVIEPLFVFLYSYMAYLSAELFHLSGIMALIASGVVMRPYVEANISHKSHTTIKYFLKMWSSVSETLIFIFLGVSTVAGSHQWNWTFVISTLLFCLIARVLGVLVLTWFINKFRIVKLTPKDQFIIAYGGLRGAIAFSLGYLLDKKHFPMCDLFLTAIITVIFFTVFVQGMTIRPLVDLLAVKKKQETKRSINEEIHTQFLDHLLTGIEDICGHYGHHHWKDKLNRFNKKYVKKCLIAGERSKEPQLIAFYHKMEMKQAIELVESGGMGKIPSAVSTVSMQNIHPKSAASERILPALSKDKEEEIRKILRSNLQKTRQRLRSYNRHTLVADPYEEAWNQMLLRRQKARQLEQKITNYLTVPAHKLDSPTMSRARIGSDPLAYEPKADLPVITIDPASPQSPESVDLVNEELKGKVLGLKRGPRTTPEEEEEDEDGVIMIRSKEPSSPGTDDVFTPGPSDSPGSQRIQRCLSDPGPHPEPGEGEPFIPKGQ

pIC50 | Structure (SMILES)
6.82 | Cn1c(C(=O)N=C(N)N)c2c3c(cccc31)CCC2 [Example 2, N-(aminoiminomethyl)-1,3,4,5-tetrahydro-1-methyl-benz[cd]indole-2-carboxamide methanesulfonate]
6.15 | NC(N)=NC(=O)c1[nH]c2cccc3c2c1CCC3 [Example 3, N-(aminoiminomethyl)-1,3,4,5-tetrahydro-benz[cd]indole-2-carboxamide methanesulfonate]
5.40 | NC(N)=NC(=O)c1[nH]c2cccc3c2c1CCC3=O [Example 1, N-(aminoiminomethyl)-1,3,4,5-tetrahydro-5-oxo-benz[cd]indole-2-carboxamidemethanesulfonate]

From patent publication US5814654A, “Substituted guanidine derivatives” (Sumitomo Pharmaceuticals Company, Limited, priority 1996, dated 1998)
